Reference: ChEMBL document CHEMBL1143809, “New bis-N9-(methylphenylmethyl)purine derivatives: synthesis and antitumor activity” (2007)

Tests used:
Assay type in all cases: functional
SK-MEL-2 = assay: Growth inhibition of human SK-MEL-2 cells after 48 hrs by SRB protein assay; settings: SK-MEL-2, 48 h
SK-MEL-28 = assay: Growth inhibition of human SK-MEL-28 cells after 48 hrs by SRB protein assay; settings: SK-MEL-28, 48 h
UACC-257 = assay: Growth inhibition of human UACC257 cells after 48 hrs by SRB protein assay; settings: UACC-257, 48 h
OVCAR-3 = assay: Growth inhibition of human OVCAR-3 cells after 48 hrs by SRB protein assay; settings: OVCAR-3, 48 h
IGROV-1 = assay: Growth inhibition of human IGROV1 cells after 48 hrs by SRB protein assay; settings: IGROV-1, 48 h
OVCAR-4 = assay: Growth inhibition of human OVCAR4 cells after 48 hrs by SRB protein assay; settings: OVCAR-4, 48 h
OVCAR-5 = assay: Growth inhibition of human OVCAR5 cells after 48 hrs by SRB protein assay; settings: OVCAR-5, 48 h
NCI-H460 = assay: Anticancer activity against human NCL-H460 cells assessed as growth at 100 uM after 48 hrs by SRB protein assay relative to control; settings: NCI-H460, 48 h, read-out: Activity
MCF7 [1] = assay: Anticancer activity against human MCF7 cells assessed as growth at 100 uM after 48 hrs by SRB protein assay relative to control; settings: MCF7, 48 h, read-out: Activity
SF-268 = assay: Anticancer activity against human SF268 cells assessed as growth at 100 uM after 48 hrs by SRB protein assay relative to control; settings: SF-268, 48 h, read-out: Activity
EKVX = assay: Growth inhibition of human EKVX cells after 48 hrs by SRB protein assay
[2] = Growth inhibition of human NCL-H322M cells after 48 hrs by SRB protein assay
HT-29 = assay: Growth inhibition of human HT29 cells after 48 hrs by SRB protein assay; settings: HT-29, 48 h
KM12 = assay: Growth inhibition of human KM12 cells after 48 hrs by SRB protein assay; settings: KM12, 48 h
SW-620 = assay: Growth inhibition of human SW620 cells after 48 hrs by SRB protein assay; settings: SW-620, 48 h
SF-295 = assay: Growth inhibition of human SF295 cells after 48 hrs by SRB protein assay; settings: SF-295, 48 h
SF-539 = assay: Growth inhibition of human SF539 cells after 48 hrs by SRB protein assay; settings: SF-539, 48 h
SNB-75 = assay: Growth inhibition of human SNB75 cells after 48 hrs by SRB protein assay; settings: SNB-75, 48 h
U-251 = assay: Growth inhibition of human U251 cells after 48 hrs by SRB protein assay; settings: U-251, 48 h
OVCAR-8 = assay: Growth inhibition of human OVCAR8 cells after 48 hrs by SRB protein assay; settings: OVCAR-8, 48 h
786-0 = assay: Growth inhibition of human 786-0 cells after 48 hrs by SRB protein assay; settings: 786-0, 48 h
CAKI-1 = assay: Growth inhibition of human CAKI1 cells after 48 hrs by SRB protein assay; settings: CAKI-1, 48 h
SN12C = assay: Growth inhibition of human SN12C cells after 48 hrs by SRB protein assay
TK-10 = assay: Growth inhibition of human TK10 cells after 48 hrs by SRB protein assay; settings: TK-10, 48 h
UO-31 = assay: Growth inhibition of human UO31 cells after 48 hrs by SRB protein assay; settings: UO-31, 48 h
DU-145 = assay: Growth inhibition of human DU145 cells after 48 hrs by SRB protein assay; settings: DU-145, 48 h
MCF7 [3] = assay: Growth inhibition of human MCF7 cells after 48 hrs by SRB protein assay; settings: MCF7, 48 h
NCI/ADR-RES = assay: Growth inhibition of human NCI/ADR-RES cells after 48 hrs by SRB protein assay
MDA-MB-435 = assay: Growth inhibition of human MDA-MB-435 cells after 48 hrs by SRB protein assay; settings: MDA-MB-435, 48 h
T47D = assay: Growth inhibition of human T47D cells after 48 hrs by SRB protein assay
Hs-578T = assay: Growth inhibition of human HS578T cells after 48 hrs by SRB protein assay
HCT-116 = assay: Growth inhibition of human HCT116 cells after 48 hrs by SRB protein assay; settings: HCT-116, 48 h
MDA-MB-231 = assay: Growth inhibition of human MDA-MB-231 cells after 48 hrs by SRB protein assay; settings: MDA-MB-231, 48 h
[4] = read-out: LC50 (the source's name)

For `Clc1nc(Cl)c2ncn(Cc3cccc(Cn4cnc5c(Cl)nc(Cl)nc54)c3)c2n1`, the GI50 (SK-MEL-2) was 2.81 µM, the TGI (SK-MEL-2) was 7.76 µM and the CC50 (SK-MEL-2; [4]) was 35.5 µM. It also gave a GI50 (SK-MEL-28) of 4.26 µM, an LC50 (SK-MEL-28) of over 100 µM and a TGI (SK-MEL-28) of 22.4 µM. The GI50 (UACC-257) was 4.78 µM, the TGI (UACC-257) was 17.4 µM and the CC50 (UACC-257; [4]) was 56.2 µM. For the same compound, the GI50 (OVCAR-3) was 2.39 µM, the LC50 (OVCAR-3) was 28.2 µM and the TGI (OVCAR-3) was 7.24 µM. It also gave a GI50 (IGROV-1) of 7.41 µM, an LC50 (50% lethal concentration) (IGROV-1) of 47.9 µM and a TGI (IGROV-1) of 20.4 µM. For the same compound, the GI50 (OVCAR-4) was 15.1 µM, the LC50 (OVCAR-4) was 55 µM and the TGI (OVCAR-4) was 28.8 µM. For the same compound, the GI50 (OVCAR-5) was 20.9 µM, the TGI (OVCAR-5) was 38 µM and the CC50 (OVCAR-5; [4]) was 70.8 µM. The growth at 100 µM (NCI-H460) was 0%, the growth at 100 µM (MCF7 [1]) was 0% and the growth at 100 µM (SF-268) was 0%. It also gave a GI50 (EKVX) of 3.09 µM, an LC50 (EKVX) of 41.7 µM and a TGI (EKVX) of 11 µM. The GI50 [2] was 14.1 µM, the TGI [2] was 27.5 µM and the CC50 [2, 4] was 52.5 µM. The GI50 (HT-29) was 4.46 µM, the LC50 (HT-29) was over 100 µM and the TGI (HT-29) was over 100 µM. For the same compound, the GI50 (KM12) was 2.88 µM, the LC50 (concentration killing 50% of cells) (KM12) was 33.1 µM and the TGI (KM12) was 8.91 µM. The GI50 (SW-620) was 1.82 µM, the TGI (SW-620) was 3.31 µM and the CC50 (SW-620; [4]) was 6.16 µM. The GI50 (SF-295) was 16.6 µM, the LC50 (SF-295) was 57.5 µM and the TGI (SF-295) was 30.9 µM. It also gave a GI50 (SF-539) of 1.38 µM, an LC50 (SF-539) of 7.07 µM and a TGI (SF-539) of 3.16 µM. For the same compound, the GI50 (SNB-75) was 2.23 µM, the TGI (SNB-75) was 5.62 µM and the CC50 (SNB-75; [4]) was 93.3 µM. The GI50 (U-251) was 3.89 µM, the TGI (U-251) was 13.8 µM and the CC50 (U-251; [4]) was 38.9 µM. For the same compound, the GI50 (OVCAR-8) was 4.67 µM, the LC50 (OVCAR-8) was 72.4 µM and the TGI (OVCAR-8) was 18.6 µM. The GI50 (786-0) was 12.3 µM, the TGI (786-0) was 26.3 µM and the CC50 (786-0; [4]) was 57.5 µM. The GI50 (CAKI-1) was 12 µM, the TGI (CAKI-1) was 26.3 µM and the CC50 (CAKI-1; [4]) was 57.5 µM. It also gave a GI50 (SN12C) of 4.67 µM, an LC50 (SN12C) of 60.2 µM and a TGI (SN12C) of 18.2 µM. It also gave a GI50 (TK-10) of 2.45 µM, an LC50 (50% lethal concentration) (TK-10) of 26.9 µM and a TGI (TK-10) of 7.24 µM. It also gave a GI50 (UO-31) of 1.9 µM, an LC50 (UO-31) of 6.6 µM and a TGI (UO-31) of 3.54 µM. For the same compound, the GI50 (DU-145) was 1.73 µM, the TGI (DU-145) was 3.09 µM and the CC50 (DU-145; [4]) was 5.62 µM. It also gave a GI50 (MCF7 [3]) of 3.63 µM, an LC50 (MCF7 [3]) of over 100 µM and a TGI (MCF7 [3]) of 37.1 µM. For the same compound, the GI50 (NCI/ADR-RES) was 12.6 µM, the LC50 (NCI/ADR-RES) was 97.7 µM and the TGI (NCI/ADR-RES) was 34.7 µM. It also gave a GI50 (MDA-MB-435) of 7.24 µM, an LC50 (MDA-MB-435) of 58.9 µM and a TGI (MDA-MB-435) of 22.4 µM. For the same compound, the GI50 (T47D) was 3.02 µM, the LC50 (T47D) was over 100 µM and the TGI (T47D) was 8.51 µM. The GI50 (Hs-578T) was 2.69 µM, the LC50 (concentration killing 50% of cells) (Hs-578T) was 83.2 µM and the TGI (Hs-578T) was 7.24 µM. For the same compound, the GI50 (HCT-116) was 5.75 µM, the TGI (HCT-116) was 22.4 µM and the CC50 (HCT-116; [4]) was 9.33 µM. The GI50 (MDA-MB-231) was 2.63 µM, the LC50 (50% lethal concentration) (MDA-MB-231) was 30.2 µM and the TGI (MDA-MB-231) was 7.07 µM.
